Experimental data as given in ChEMBL document CHEMBL6071156 (Eur J Med Chem, 2024).
Active and inactive are the calls of the source. No cut-off for these calls is given here.

How the values were obtained:
[1] = Cytotoxicity against green monkey Vero 76 cells assessed as reduction in cell viability; type: toxicity, cell-based; details: chlorocebus sabaeus
Chikungunya virus [2] = assay: Antiviral activity against CHIKV S27 in green monkey Vero 76 cells assessed as reduction in virus-induced cytopathic effect; type: functional, organism-based; details: S27, Vero 76
Chikungunya virus [3] = assay: Antiviral activity against CHIKV infected in C57BL/6 mouse assessed as footpad swelling at 300 mg/kg/day, ip measured after 6 days post infection presence of compound (reference value: 40.9+/-12.4); type: functional; details: time 6 day
Chikungunya virus [4] = assay: Antiviral activity against CHIKV infected in C57BL/6 mouse assessed as mouse survival at 300 mg/kg/day, ip measured after 6 days post infection after 4 hrs of last treatment; type: functional, organism-based; details: time 6.0 day
Chikungunya virus [5] = assay: Antiviral activity against CHIKV infected in C57BL/6 mouse model assessed as virus titers at 100 mg/kg/day, ip measured after 6 days post infection presence of compound (reference value: 5.3+/0.3); type: functional; details: time 6 day
[6] = Selective index, ratio of ratio of CC50 for cytotoxicity against green monkey Vero 76 cells to EC50 for antiviral activity against CHIKV S27 in green monkey Vero 76 cells assessed as reduction; type: toxicity, cell-based; details: read-out: Selectivity Index
[7] = molecular target: Polyprotein P1234 (Chikungunya virus (strain S27-African prototype) (CHIKV)) (UniProt Q8JUX6)
[8] = molecular target: Polyprotein P1234 (Chikungunya virus (strain S27-African prototype) (CHIKV)) (UniProt Q8JUX6); details: dose 0.27-600 µM
Chikungunya virus [9] = assay: Antiviral activity against CHIKV S27 in green monkey Vero 76 cells assessed as reduction in virus yield measured after 3 days by Virus yield reduction assay; type: functional; details: S27, Vero 76, 72 h, time 3 day
[10] = Metabolic stability in human liver S9 fraction assessed as half life by HPLC-MS/MS analysis; type: ADME, subcellular
[11] = Metabolic stability in human liver microsomes assessed as intrinsic clearance by HPLC-MS/MS analysis; type: ADME, Microsome
[12] = Metabolic stability in human liver S9 fraction assessed as intrinsic clearance by HPLC-MS/MS analysis; type: ADME, subcellular
[13] = Metabolic stability in CD-1 mouse liver microsomes assessed as half life by HPLC-MS/MS analysis; type: ADME, Microsome
[14] = molecular target: Polyprotein P1234 (Chikungunya virus (strain S27-African prototype) (CHIKV)) (UniProt Q8JUX6); details: dose 0.27-600 µM, time 2000-8000 sec

Chain of Polyprotein P1234 (Chikungunya virus (strain S27-African prototype) (CHIKV)) (Q8JUX6 whole entry): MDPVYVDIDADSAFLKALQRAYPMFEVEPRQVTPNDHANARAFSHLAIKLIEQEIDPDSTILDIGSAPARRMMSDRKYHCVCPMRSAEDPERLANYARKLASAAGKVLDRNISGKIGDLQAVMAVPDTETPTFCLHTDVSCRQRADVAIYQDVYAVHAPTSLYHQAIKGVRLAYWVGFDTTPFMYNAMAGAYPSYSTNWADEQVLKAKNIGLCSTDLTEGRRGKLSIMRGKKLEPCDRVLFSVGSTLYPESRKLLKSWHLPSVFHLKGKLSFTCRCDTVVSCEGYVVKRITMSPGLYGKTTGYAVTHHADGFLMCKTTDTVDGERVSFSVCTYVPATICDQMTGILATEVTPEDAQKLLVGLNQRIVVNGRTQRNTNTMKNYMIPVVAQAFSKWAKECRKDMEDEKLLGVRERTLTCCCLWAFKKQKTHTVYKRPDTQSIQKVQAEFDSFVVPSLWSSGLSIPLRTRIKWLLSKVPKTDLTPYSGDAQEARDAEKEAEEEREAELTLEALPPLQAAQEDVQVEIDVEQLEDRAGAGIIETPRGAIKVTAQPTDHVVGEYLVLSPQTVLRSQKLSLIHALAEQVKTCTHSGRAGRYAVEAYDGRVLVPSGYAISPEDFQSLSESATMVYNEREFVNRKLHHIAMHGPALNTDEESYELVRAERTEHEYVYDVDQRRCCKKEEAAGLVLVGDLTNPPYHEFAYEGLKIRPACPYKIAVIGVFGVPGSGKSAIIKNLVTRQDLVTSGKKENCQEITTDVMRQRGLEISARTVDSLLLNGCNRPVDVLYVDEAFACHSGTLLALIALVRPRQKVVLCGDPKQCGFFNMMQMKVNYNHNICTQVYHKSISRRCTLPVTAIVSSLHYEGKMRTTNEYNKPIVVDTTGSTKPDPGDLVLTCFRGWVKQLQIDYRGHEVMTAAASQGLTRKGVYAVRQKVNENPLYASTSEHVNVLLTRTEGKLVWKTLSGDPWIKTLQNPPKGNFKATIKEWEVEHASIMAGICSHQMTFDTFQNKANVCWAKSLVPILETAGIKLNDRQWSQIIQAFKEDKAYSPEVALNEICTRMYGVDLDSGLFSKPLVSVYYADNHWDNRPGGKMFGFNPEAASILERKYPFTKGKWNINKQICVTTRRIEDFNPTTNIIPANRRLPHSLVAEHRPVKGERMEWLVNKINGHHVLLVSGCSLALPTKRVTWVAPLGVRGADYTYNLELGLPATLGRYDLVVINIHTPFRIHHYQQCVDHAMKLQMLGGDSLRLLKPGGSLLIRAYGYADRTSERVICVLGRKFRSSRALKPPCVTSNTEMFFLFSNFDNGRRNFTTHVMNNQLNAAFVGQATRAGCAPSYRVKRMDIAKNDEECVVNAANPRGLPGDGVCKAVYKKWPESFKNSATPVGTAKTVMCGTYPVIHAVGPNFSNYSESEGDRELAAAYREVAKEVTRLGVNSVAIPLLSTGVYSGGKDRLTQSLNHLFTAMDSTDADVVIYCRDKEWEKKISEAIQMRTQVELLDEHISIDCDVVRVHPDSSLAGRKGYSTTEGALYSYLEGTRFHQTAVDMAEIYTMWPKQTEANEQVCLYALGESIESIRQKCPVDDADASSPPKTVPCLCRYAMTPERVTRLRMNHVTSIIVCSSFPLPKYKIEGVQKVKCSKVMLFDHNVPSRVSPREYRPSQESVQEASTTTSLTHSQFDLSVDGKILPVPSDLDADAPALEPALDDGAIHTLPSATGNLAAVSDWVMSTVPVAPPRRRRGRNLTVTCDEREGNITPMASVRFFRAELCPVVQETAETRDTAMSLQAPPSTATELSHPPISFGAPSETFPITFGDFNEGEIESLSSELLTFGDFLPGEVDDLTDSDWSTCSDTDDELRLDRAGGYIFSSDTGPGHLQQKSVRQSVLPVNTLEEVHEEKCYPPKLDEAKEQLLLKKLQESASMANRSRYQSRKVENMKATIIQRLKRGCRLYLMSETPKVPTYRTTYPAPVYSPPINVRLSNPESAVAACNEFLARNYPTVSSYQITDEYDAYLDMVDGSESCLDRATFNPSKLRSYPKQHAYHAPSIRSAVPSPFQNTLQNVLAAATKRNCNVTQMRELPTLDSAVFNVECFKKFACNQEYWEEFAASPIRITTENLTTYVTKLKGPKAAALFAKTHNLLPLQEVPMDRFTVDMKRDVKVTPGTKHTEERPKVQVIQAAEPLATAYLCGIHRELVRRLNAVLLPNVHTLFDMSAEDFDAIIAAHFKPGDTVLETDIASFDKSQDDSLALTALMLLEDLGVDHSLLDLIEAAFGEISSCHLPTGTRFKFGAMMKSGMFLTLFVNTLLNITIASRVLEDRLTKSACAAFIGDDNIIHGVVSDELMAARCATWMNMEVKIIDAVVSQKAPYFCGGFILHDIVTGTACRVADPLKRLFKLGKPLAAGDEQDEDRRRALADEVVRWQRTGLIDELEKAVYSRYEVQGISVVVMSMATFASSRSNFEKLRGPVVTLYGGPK

Row | SMILES | CC50 [1] | EC50 (Chikungunya virus [2]) | other results
1 | CS(=O)(=O)/C=C/[C@H](Cc1ccccc1)NC(=O)c1cccc2cccnc12 | > 50 µM | > 50 µM | 
2 | COC(=O)/C=C/CNC(=O)c1cccc2cccnc12 | > 50 µM | > 50 µM | 
3 | NC(=O)c1nc(F)cnc1O |  |  | Activity (Chikungunya virus [3]): 32.6%; Survival (Chikungunya virus [4]): Active; Activity (Chikungunya virus [5]): 5.1
4 | COC(=O)/C=C/CNC(=O)c1cccc2c1NCCC2 | > 50 µM | > 50 µM | 
5 | COC(=O)/C=C/CNC(=O)c1cccc2c1NC(C)(C)C=C2C | > 22 µM | > 22 µM | 
6 | CC1CC(C)(C)Nc2c(C(=O)NC/C=C/S(C)(=O)=O)cccc21 (stereo not given) | > 50 µM | 25 µM | selectivity ratio [6]: > 2
7 | CC1=CC(C)(C)Nc2c(C(=O)NC/C=C/S(C)(=O)=O)cccc21 | 39 µM | 23 µM | 
8 | COC(=O)/C=C/CNC(=O)c1cc(C)cc2c1NC(C)(C)C=C2C | > 43 µM | > 43 µM | 
9 | COC(=O)/C=C/CNC(=O)c1ccccc1Nc1ccccc1 | 38 µM | > 38 µM | 
10 | COC(=O)CCCNC(=O)c1cccc2c1NC(C)(C)CC2C (stereo not given) | > 50 µM | > 50 µM | 
11 | COC(=O)/C=C/CNC(=O)c1cccc2ccc(C)nc12 | 34 µM | > 34 µM | 
12 | CC1=CC(C)(C)Nc2c(C(=O)N[C@@H](C)/C=C/S(C)(=O)=O)cccc21 | > 50 µM | 4.4 µM | selectivity ratio [6]: > 11
13 | CC1CCc2cccc(C(=O)NC/C=C/S(C)(=O)=O)c2N1 (stereo not given) | > 50 µM | 0.23 µM | Ratio (10^-6 microM/s) [7]: 35.8; inhibition [8]: Dose-Dependent Effect; EC90 (Chikungunya virus [9]): 1.5 µM; t1/2 [10]: > 2 h; CLH [11]: < 57.8 µL/min/mg; selectivity ratio [6]: > 220; CLH [12]: < 19.3 µL/min/mg; t1/2 [13]: 1.356 h; TDI [14]: Active
14 | COC(=O)/C=C/CNC(=O)c1c[nH]c2ccc(Br)cc12 | 16 µM | 3.1 µM | 
